# Key:
# Assay in all cases: relative viability (nuclei count vs DMSO), 5 days (fraction); higher = more cells survive
# ChaGo-K-1 = test system: ChaGo-K-1
# How it was run: (§1)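 Medians of duplicate plates are given as relative viability. That measure is the nuclei count in treated wells divided by the count in vehicle wells. Counts were taken on 4× images of lung cancer cell lines in 1536-well plates, 5 days after pin-tool dosing the day after seeding with one drug alone or a fixed anchor-drug dose plus five library-drug doses (not always all listed) in √10 steps.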
# EKVX = test system: EKVX
# How it was run: as §1
# EMC-BAC-2 = test system: EMC-BAC-2
# How it was run: as §1
# EPLC-272H = test system: EPLC-272H
# How it was run: as §1
# H3255 = test system: H3255
# How it was run: as §1
# HARA = test system: HARA
# How it was run: as §1
# HCC-15 = test system: HCC-15
# How it was run: as §1
# HCC-827 = test system: HCC-827
# How it was run: as §1
# LC-2-ad = test system: LC-2-ad
# How it was run: as §1
# LCLC-103H = test system: LCLC-103H
# How it was run: as §1
# LK-2 = test system: LK-2
# How it was run: as §1
# NCI-H1648 = test system: NCI-H1648
# How it was run: as §1
# NCI-H1792 = test system: NCI-H1792
# How it was run: as §1
# NCI-H1793 = test system: NCI-H1793
# How it was run: as §1
# NCI-H1944 = test system: NCI-H1944
# How it was run: as §1
# NCI-H2170 = test system: NCI-H2170
# How it was run: as §1
# NCI-H23 = test system: NCI-H23
# How it was run: as §1
# NCI-H2405 = test system: NCI-H2405
# How it was run: as §1
# NCI-H3122 = test system: NCI-H3122
# How it was run: as §1
# NCI-H596 = test system: NCI-H596
# How it was run: as §1
# RERF-LC-KJ = test system: RERF-LC-KJ
# How it was run: as §1
# SW 900 = test system: SW 900
# How it was run: as §1
smiles,measurement,setting,value
C=C1C(=O)O[C@@H](CCCCCCCC)[C@@H]1C(=O)O [C-75] + NC(=O)Nc1cc(-c2cccc(F)c2)sc1C(=O)N[C@H]1CCCNC1 [AZD7762] (partner 0.2 µM),relative viability,ChaGo-K-1; first compound 0.08 µM,0.857
same,relative viability,ChaGo-K-1; first compound 0.253 µM,0.921
same,relative viability,ChaGo-K-1; first compound 0.8 µM,0.777
same,relative viability,ChaGo-K-1; first compound 2.53 µM,0.603
same,relative viability,ChaGo-K-1; first compound 8 µM,0.812
same,relative viability,EKVX; first compound 0.08 µM,0.683
same,relative viability,EKVX; first compound 0.253 µM,0.765
same,relative viability,EKVX; first compound 0.8 µM,0.498
same,relative viability,EKVX; first compound 8 µM,0.51
same,relative viability,EMC-BAC-2; first compound 0.08 µM,1.1
same,relative viability,EMC-BAC-2; first compound 0.253 µM,1.04
same,relative viability,EMC-BAC-2; first compound 0.8 µM,1.06
same,relative viability,EMC-BAC-2; first compound 2.53 µM,0.887
same,relative viability,EMC-BAC-2; first compound 8 µM,1.07
same,relative viability,EPLC-272H; first compound 0.08 µM,0.23
same,relative viability,EPLC-272H; first compound 0.253 µM,0.257
same,relative viability,EPLC-272H; first compound 0.8 µM,0.188
same,relative viability,EPLC-272H; first compound 2.53 µM,0.196
same,relative viability,EPLC-272H; first compound 8 µM,0.266
same,relative viability,H3255; first compound 0.08 µM,0.847
same,relative viability,H3255; first compound 0.253 µM,0.893
same,relative viability,H3255; first compound 0.8 µM,0.774
same,relative viability,H3255; first compound 2.53 µM,0.885
same,relative viability,H3255; first compound 8 µM,0.865
same,relative viability,HARA; first compound 0.08 µM,0.568
same,relative viability,HARA; first compound 0.253 µM,0.469
same,relative viability,HARA; first compound 0.8 µM,0.213
same,relative viability,HARA; first compound 2.53 µM,0.447
same,relative viability,HARA; first compound 8 µM,0.722
same,relative viability,HCC-15; first compound 0.08 µM,1.37
same,relative viability,HCC-15; first compound 0.253 µM,1.39
same,relative viability,HCC-15; first compound 0.8 µM,1.2
same,relative viability,HCC-15; first compound 2.53 µM,0.78
same,relative viability,HCC-15; first compound 8 µM,1.22
same,relative viability,HCC-827; first compound 0.253 µM,0.245
same,relative viability,HCC-827; first compound 0.8 µM,0.201
same,relative viability,HCC-827; first compound 8 µM,0.355
same,relative viability,LC-2-ad; first compound 0.08 µM,0.833
same,relative viability,LC-2-ad; first compound 0.253 µM,0.813
same,relative viability,LC-2-ad; first compound 0.8 µM,0.819
same,relative viability,LC-2-ad; first compound 2.53 µM,0.728
same,relative viability,LC-2-ad; first compound 8 µM,0.853
same,relative viability,LCLC-103H; first compound 0.08 µM,0.809
same,relative viability,LCLC-103H; first compound 0.253 µM,0.619
same,relative viability,LCLC-103H; first compound 0.8 µM,0.695
same,relative viability,LCLC-103H; first compound 2.53 µM,0.654
same,relative viability,LCLC-103H; first compound 8 µM,0.814
same,relative viability,LK-2; first compound 0.08 µM,0.355
same,relative viability,LK-2; first compound 0.253 µM,0.699
same,relative viability,LK-2; first compound 0.8 µM,0.299
same,relative viability,LK-2; first compound 2.53 µM,0.289
same,relative viability,LK-2; first compound 8 µM,0.255
same,relative viability,NCI-H1648; first compound 0.08 µM,0.75
same,relative viability,NCI-H1648; first compound 0.253 µM,1.2
same,relative viability,NCI-H1648; first compound 0.8 µM,0.712
same,relative viability,NCI-H1648; first compound 8 µM,0.622
same,relative viability,NCI-H1792; first compound 0.08 µM,0.787
same,relative viability,NCI-H1792; first compound 0.253 µM,0.623
same,relative viability,NCI-H1792; first compound 0.8 µM,0.748
same,relative viability,NCI-H1792; first compound 2.53 µM,0.443
same,relative viability,NCI-H1792; first compound 8 µM,0.554
same,relative viability,NCI-H1793; first compound 0.08 µM,0.478
same,relative viability,NCI-H1793; first compound 0.253 µM,0.645
same,relative viability,NCI-H1793; first compound 2.53 µM,0.293
same,relative viability,NCI-H1793; first compound 8 µM,0.854
same,relative viability,NCI-H1944; first compound 0.08 µM,0.566
same,relative viability,NCI-H1944; first compound 0.253 µM,0.648
same,relative viability,NCI-H1944; first compound 0.8 µM,0.381
same,relative viability,NCI-H1944; first compound 2.53 µM,0.621
same,relative viability,NCI-H1944; first compound 8 µM,0.517
same,relative viability,NCI-H2170; first compound 0.08 µM,0.945
same,relative viability,NCI-H2170; first compound 0.253 µM,1.1
same,relative viability,NCI-H2170; first compound 0.8 µM,0.858
same,relative viability,NCI-H2170; first compound 2.53 µM,0.737
same,relative viability,NCI-H2170; first compound 8 µM,0.887
same,relative viability,NCI-H23; first compound 0.08 µM,0.255
same,relative viability,NCI-H23; first compound 0.253 µM,0.43
same,relative viability,NCI-H23; first compound 0.8 µM,0.263
same,relative viability,NCI-H23; first compound 2.53 µM,0.197
same,relative viability,NCI-H23; first compound 8 µM,0.376
same,relative viability,NCI-H2405; first compound 0.08 µM,0.689
same,relative viability,NCI-H2405; first compound 0.253 µM,0.4
same,relative viability,NCI-H2405; first compound 0.8 µM,0.831
same,relative viability,NCI-H2405; first compound 2.53 µM,0.67
same,relative viability,NCI-H2405; first compound 8 µM,0.764
same,relative viability,NCI-H3122; first compound 0.08 µM,1.03
same,relative viability,NCI-H3122; first compound 0.253 µM,1.09
same,relative viability,NCI-H3122; first compound 0.8 µM,0.951
same,relative viability,NCI-H3122; first compound 2.53 µM,0.883
same,relative viability,NCI-H3122; first compound 8 µM,1.03
same,relative viability,NCI-H596; first compound 0.08 µM,1.23
same,relative viability,NCI-H596; first compound 0.253 µM,1.12
same,relative viability,NCI-H596; first compound 0.8 µM,0.998
same,relative viability,NCI-H596; first compound 2.53 µM,0.975
same,relative viability,NCI-H596; first compound 8 µM,0.988
same,relative viability,RERF-LC-KJ; first compound 0.08 µM,0.946
same,relative viability,RERF-LC-KJ; first compound 0.253 µM,1.16
same,relative viability,RERF-LC-KJ; first compound 0.8 µM,0.824
same,relative viability,RERF-LC-KJ; first compound 2.53 µM,0.925
same,relative viability,RERF-LC-KJ; first compound 8 µM,1.09
same,relative viability,SW 900; first compound 0.08 µM,0.663
same,relative viability,SW 900; first compound 0.253 µM,0.69
same,relative viability,SW 900; first compound 0.8 µM,0.623
same,relative viability,SW 900; first compound 2.53 µM,0.576
same,relative viability,SW 900; first compound 8 µM,0.611

# — the supplement of paper PMC10307832
